Values quoted from earlier work in USRE39151E1, “Process for the preparation and purification of thiol-containing maytansinoids” (Immunogen, Inc., priority 2000, dated 2006).

How the values were obtained:
[1] = system: L1210 cells; settings: L1210 cells treated in vivo; untreated control mitotic index 3.2 to 5.8%
[2] = system: P388 murine leukemic cell suspensions; settings: in vitro, P388 cell suspension
[3] = system: L1210 murine leukemic cell suspensions; settings: in vitro, L1210 cell suspension
[4] = system: LY5178 murine leukemic cell suspensions; settings: in vitro, LY5178 cell suspension
[5] = system: human nasopharyngeal carcinoma cells
[6] = system: human acute lymphoblastic leukemia line C.E.M.
[7] = system: P388 lymphocytic leukemia system; settings: in vivo
[8] = system: L1210 mouse leukemia system
[9] = system: Lewis lung carcinoma system
[10] = system: B-16 melanocarcinoma system
[11] = system: tubulin; settings: sea urchin eggs and clam eggs
[12] = versus methotrexate, daunorubicin, and vincristine
[13] = patients

SMILES: COc1cc2cc(c1Cl)N(C)C(=O)C[C@H](OC(=O)[C@H](C)N(C)C(C)=O)[C@]1(C)O[C@H]1[C@H](C)[C@@H]1C[C@@](O)(NC(=O)O1)[C@H](OC)/C=C/C=C(\C)C2 [maytansine]
- cells accumulating in mitosis [1]: 67%
- inhibitory dose [2]: 10^−3 to 10^−1 microgram/mL
- inhibitory dose [3]: 10^−3 to 10^−1 microgram/mL
- inhibitory dose [4]: 10^−3 to 10^−1 microgram/mL
- inhibition of in vitro growth [5]: active inhibitor
- inhibitory concentration [6]: ≥ 10^−7 microgram/ml
- dosage range over which tumor growth was inhibited [7]: 50- to 100 fold
- inhibitory activity in vivo [8]: significant inhibitory activity
- inhibitory activity in vivo [9]: significant inhibitory activity
- inhibitory activity in vivo [10]: significant inhibitory activity
- effect on mitosis / microtubule formation [11]: inhibits mitosis by interfering with the formation of microtubules
- fold more cytotoxic than conventional cancer chemotherapeutic agents [12]: 100 to 1000 fold
- adverse effects in clinical trials [13]: associated with peripheral neuropathy that might be cumulative
- outcome of clinical trials [13]: not favorable due to a number of side effects
